Data taken from patent US9492471B2, “Methods of treating a disease or disorder associated with Bruton'S Tyrosine Kinase” (Celgene Avilomics Research, Inc., priority 2013, dated 2016).
Where two headings read alike, the source gives them in different places.

Key:
Experiment in all cases: HotSpot kinase profiling
Assay type in all cases: biochemical
[1] = biological target: T1, KHS/MAP4K5 (Homo sapiens, UniProt Q9Y4K4)
T1 construct: purchased Reaction Biology Corp
Outline: (§1)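 Radio-isotope P81 filtration format. Substrate + required cofactors in reaction buffer, kinase added, 2 h RT. Stop, wash with 0.1% phosphoric acid, detect. % inhibition vs DMSO; mean of duplicates where repeated.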

[2] = biological target: T2, BRAF (Homo sapiens, UniProt P15056)
T2 construct: purchased Reaction Biology Corp
T2 sequence (P15056 whole entry): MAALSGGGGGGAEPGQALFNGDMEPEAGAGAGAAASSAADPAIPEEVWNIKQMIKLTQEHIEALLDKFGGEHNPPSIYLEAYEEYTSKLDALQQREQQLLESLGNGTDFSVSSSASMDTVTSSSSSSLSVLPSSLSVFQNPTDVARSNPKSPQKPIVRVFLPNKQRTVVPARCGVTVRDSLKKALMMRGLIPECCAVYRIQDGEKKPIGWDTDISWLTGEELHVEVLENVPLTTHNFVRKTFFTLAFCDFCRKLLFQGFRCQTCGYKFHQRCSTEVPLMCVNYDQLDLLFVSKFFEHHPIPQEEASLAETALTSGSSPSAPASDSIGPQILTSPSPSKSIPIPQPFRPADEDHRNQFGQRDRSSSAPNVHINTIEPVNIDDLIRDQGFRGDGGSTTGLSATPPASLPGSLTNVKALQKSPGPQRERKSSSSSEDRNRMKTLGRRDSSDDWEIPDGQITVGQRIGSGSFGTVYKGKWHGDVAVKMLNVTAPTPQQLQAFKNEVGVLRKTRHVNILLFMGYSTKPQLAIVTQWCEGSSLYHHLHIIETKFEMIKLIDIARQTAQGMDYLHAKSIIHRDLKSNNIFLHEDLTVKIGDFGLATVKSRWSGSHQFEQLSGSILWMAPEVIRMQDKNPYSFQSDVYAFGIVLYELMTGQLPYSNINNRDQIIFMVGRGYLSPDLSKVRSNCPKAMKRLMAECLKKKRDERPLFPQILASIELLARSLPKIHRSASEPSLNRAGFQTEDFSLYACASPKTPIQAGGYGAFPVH
Outline: as §1

[3] = biological target: T3, MLCK/MYLK (Homo sapiens, UniProt Q15746)
T3 construct: purchased Reaction Biology Corp
Outline: as §1

[4] = biological target: T4, IGF1R (Homo sapiens, UniProt P08069)
T4 construct: purchased Reaction Biology Corp
T4 sequence (P08069 31-1367): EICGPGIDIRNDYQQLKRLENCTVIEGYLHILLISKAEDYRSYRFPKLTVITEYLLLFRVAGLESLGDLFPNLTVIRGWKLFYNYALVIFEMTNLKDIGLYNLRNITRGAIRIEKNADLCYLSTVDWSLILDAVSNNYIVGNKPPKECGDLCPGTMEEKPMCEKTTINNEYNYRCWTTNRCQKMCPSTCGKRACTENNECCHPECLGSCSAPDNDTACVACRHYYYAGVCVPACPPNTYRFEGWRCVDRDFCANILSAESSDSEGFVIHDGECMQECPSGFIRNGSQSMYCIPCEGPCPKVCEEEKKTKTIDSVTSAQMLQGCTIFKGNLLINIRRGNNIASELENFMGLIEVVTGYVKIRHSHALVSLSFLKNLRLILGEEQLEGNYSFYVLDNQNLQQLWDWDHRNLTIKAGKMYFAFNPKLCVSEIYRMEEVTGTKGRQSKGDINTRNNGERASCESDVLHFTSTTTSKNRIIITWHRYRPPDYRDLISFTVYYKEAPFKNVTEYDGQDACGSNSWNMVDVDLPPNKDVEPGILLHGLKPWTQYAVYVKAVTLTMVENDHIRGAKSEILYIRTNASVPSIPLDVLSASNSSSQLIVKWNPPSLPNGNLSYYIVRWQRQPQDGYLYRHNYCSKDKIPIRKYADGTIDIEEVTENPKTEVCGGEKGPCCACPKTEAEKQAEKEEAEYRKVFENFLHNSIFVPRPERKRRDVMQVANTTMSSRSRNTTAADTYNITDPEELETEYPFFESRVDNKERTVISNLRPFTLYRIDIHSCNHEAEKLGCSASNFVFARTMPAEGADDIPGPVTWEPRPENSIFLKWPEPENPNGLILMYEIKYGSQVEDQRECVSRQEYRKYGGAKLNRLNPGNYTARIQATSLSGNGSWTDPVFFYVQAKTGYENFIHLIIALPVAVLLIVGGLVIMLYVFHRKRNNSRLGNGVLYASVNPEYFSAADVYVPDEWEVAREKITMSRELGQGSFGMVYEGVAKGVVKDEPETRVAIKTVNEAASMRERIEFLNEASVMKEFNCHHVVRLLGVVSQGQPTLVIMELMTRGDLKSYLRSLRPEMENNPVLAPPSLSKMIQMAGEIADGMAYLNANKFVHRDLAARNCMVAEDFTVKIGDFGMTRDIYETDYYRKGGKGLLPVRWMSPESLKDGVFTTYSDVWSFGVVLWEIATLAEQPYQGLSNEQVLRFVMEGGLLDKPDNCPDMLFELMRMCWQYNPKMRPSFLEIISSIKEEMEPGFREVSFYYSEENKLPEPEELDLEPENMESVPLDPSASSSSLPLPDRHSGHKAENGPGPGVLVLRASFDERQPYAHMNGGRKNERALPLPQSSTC
Outline: as §1

[5] = biological target: T5, OSR1/OXSR1 (Homo sapiens, UniProt O95747)
T5 construct: purchased Reaction Biology Corp
T5 sequence (O95747 whole entry): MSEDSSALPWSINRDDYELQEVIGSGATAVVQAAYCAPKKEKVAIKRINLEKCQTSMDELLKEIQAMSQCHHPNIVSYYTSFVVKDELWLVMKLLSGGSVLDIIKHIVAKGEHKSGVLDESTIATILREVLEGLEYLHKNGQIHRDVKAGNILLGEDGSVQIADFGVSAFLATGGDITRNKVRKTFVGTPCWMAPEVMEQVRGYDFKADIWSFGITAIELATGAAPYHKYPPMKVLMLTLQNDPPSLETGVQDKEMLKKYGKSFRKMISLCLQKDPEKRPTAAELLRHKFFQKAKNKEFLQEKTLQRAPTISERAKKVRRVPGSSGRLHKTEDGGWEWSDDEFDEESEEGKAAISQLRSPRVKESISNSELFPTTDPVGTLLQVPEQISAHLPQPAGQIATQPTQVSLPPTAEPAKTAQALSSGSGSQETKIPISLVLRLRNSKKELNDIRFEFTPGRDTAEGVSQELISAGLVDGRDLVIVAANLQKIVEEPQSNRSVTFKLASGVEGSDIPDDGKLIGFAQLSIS
Outline: as §1

[6] = biological target: T6, TRKC (Homo sapiens, UniProt Q16288)
T6 construct: purchased Reaction Biology Corp
T6 sequence (Q16288 32-839): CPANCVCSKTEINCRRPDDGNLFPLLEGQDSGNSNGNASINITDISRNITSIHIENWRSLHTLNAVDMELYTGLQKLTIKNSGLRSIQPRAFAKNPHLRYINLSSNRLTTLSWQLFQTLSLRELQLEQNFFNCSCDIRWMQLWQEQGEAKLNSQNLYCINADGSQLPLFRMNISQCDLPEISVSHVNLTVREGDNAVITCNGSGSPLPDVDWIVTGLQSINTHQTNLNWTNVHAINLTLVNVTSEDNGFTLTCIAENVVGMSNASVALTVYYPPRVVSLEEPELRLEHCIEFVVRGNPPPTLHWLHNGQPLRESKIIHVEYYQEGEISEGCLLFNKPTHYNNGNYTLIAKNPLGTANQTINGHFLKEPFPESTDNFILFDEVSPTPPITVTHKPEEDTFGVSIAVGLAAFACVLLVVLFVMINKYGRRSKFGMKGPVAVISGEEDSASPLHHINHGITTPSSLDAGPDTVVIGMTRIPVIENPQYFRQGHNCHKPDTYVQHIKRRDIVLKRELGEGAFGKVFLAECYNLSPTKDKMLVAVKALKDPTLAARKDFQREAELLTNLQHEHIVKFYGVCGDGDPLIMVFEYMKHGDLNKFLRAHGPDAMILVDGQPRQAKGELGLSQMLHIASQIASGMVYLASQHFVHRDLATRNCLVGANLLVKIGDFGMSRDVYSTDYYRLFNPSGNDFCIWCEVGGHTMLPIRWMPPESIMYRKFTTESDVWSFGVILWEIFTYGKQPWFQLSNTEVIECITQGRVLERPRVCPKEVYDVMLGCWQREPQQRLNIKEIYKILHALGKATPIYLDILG
Outline: as §1

[7] = biological target: T7, FLT3 (Homo sapiens, UniProt P36888)
T7 construct: purchased Reaction Biology Corp
T7 sequence (P36888 27-993): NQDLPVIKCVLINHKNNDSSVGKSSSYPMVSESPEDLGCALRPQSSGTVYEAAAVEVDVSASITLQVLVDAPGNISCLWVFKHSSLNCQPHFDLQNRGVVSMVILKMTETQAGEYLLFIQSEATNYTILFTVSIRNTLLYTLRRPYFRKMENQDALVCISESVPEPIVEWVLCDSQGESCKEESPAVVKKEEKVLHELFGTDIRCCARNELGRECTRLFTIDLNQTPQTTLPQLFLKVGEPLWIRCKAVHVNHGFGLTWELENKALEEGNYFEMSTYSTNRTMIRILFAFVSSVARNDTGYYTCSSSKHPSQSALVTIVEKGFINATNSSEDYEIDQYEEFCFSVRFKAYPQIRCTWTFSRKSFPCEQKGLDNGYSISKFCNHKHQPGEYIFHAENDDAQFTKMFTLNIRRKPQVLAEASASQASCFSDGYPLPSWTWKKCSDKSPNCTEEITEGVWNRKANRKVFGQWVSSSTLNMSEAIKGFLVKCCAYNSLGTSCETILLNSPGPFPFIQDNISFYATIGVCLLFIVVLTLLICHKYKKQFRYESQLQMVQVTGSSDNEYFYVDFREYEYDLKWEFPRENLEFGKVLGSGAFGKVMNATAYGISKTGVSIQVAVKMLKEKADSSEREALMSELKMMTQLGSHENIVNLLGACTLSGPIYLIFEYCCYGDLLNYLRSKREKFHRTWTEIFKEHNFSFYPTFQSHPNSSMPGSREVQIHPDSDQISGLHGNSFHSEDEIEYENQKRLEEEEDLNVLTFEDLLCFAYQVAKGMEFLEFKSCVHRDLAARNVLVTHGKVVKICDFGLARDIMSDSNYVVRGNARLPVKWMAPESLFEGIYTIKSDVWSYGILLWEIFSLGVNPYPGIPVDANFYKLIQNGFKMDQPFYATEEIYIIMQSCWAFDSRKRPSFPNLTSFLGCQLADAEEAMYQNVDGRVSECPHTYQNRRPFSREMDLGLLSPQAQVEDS
Outline: as §1

[8] = biological target: T8, PKCb2 (Homo sapiens, UniProt P05771)
T8 construct: purchased Reaction Biology Corp
Outline: as §1

[9] = biological target: T9, MSK2/RPS6KA4 (Homo sapiens, UniProt O75676)
T9 construct: purchased Reaction Biology Corp
T9 sequence (O75676 whole entry): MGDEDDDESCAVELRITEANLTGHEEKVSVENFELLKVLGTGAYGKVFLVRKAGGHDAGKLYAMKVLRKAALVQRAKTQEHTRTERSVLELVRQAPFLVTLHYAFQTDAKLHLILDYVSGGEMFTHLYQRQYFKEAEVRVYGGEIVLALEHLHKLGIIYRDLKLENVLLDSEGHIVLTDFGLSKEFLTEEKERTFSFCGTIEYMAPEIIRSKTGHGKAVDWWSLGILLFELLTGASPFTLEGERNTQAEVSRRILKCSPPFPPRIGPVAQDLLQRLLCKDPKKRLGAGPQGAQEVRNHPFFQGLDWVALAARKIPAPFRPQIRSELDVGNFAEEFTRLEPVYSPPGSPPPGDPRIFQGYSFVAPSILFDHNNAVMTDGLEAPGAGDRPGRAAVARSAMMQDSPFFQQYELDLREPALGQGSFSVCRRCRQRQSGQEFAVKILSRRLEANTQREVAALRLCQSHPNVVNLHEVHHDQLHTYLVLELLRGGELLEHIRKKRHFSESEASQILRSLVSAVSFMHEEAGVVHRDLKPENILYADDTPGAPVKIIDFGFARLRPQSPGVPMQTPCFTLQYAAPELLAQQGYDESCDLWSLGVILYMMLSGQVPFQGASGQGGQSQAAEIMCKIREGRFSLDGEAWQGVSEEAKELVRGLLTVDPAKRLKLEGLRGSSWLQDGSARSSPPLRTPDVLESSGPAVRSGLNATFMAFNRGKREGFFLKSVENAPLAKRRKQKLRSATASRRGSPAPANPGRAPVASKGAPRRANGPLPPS
Outline: as §1

[10] = read-out: % Enzyme Activity (relative to DMSO controls) Run 1
[11] = read-out: % Enzyme Activity (relative to DMSO controls) Run 2

T1 sequence (Q9Y4K4 whole entry): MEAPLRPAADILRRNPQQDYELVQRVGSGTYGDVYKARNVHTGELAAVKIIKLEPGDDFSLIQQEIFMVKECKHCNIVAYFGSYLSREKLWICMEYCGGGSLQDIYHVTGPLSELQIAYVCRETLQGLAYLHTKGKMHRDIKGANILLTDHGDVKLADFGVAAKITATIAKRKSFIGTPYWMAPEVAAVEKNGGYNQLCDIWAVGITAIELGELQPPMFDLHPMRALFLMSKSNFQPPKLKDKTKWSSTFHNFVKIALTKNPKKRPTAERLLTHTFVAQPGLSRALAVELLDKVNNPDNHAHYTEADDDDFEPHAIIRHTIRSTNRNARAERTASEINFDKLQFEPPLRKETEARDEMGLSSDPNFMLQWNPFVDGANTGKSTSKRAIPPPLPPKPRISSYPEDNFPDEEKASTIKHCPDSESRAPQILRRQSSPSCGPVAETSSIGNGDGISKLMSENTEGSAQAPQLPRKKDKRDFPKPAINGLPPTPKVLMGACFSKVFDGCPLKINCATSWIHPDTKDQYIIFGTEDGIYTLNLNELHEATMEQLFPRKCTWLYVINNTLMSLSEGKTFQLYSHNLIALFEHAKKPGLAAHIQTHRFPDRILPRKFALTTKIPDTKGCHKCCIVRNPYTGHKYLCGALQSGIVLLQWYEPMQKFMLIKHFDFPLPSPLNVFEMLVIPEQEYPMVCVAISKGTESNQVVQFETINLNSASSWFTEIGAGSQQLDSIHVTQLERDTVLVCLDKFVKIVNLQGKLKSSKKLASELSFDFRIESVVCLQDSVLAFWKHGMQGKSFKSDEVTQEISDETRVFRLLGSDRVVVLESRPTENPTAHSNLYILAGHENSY

## C=CC(=O)Nc1cccc(Nc2nc(Nc3ccc(OCCOC)c(F)c3)ncc2F)c1 [Compound 2]
[1]
  inhibition at 3 µM: 7.15%
[1]; [10]
  remaining activity at 3 µM: 94.9%
[1]; [11]
  remaining activity at 3 µM: 90.8%
[2]
  inhibition at 3 µM: 0.04%
[2]; [10]
  remaining activity at 3 µM: 101%
[2]; [11]
  remaining activity at 3 µM: 99.1%
[3]
  inhibition at 3 µM: 4.59%
[3]; [10]
  remaining activity at 3 µM: 95.6%
[3]; [11]
  remaining activity at 3 µM: 95.2%
[4]
  inhibition at 3 µM: 15.6%
[4]; [10]
  remaining activity at 3 µM: 82.8%
[4]; [11]
  remaining activity at 3 µM: 86%
[5]
  inhibition at 3 µM: -19.2%
[5]; [10]
  remaining activity at 3 µM: 117%
[5]; [11]
  remaining activity at 3 µM: 122%
[6]
  inhibition at 3 µM: 66.3%
[6]; [10]
  remaining activity at 3 µM: 35.1%
[6]; [11]
  remaining activity at 3 µM: 32.3%
[7]
  inhibition at 3 µM: 96.8%
[7]; [10]
  remaining activity at 3 µM: 3.19%
[7]; [11]
  remaining activity at 3 µM: 3.25%
[8]
  inhibition at 3 µM: 50.5%
[8]; [10]
  remaining activity at 3 µM: 50.1%
[8]; [11]
  remaining activity at 3 µM: 48.9%
[9]
  inhibition at 3 µM: -0.36%
[9]; [10]
  remaining activity at 3 µM: 103%
[9]; [11]
  remaining activity at 3 µM: 97.4%
